The values below are quoted from earlier work in patent US7759386B2, “Pharmaceutical compositions of estrogenic agents” (Wyeth LLC, priority 2000, dated 2010).

The conditions of the data set: after 1 year of storage; best antioxidant system described; solid state, tablets.

Take `C=C1CC[C@H](O)C/C1=C/C=C1\CCC[C@]2(C)[C@@H]([C@H](C)CCCC(C)C)CC[C@@H]12` [cholecalciferol]: the original content remaining is 87.6%.
